The structures appear in SMILES notation. Read-outs that look alike come from different tables or passages of the source.

The record followed here is US9815796B2 (Merck Sharp & Dohme Corp., priority 2013, dated 2017).

The assay has as its target Rhesus PDE2A3 (Macaca mulatta, UniProt B3VTJ2). Briefly: PDE2 fluorescence polarization (IMAP FP) inhibition assay, rhesus enzyme. The format is biochemical, rhesus macaque. Here is the method:
The activity of the compounds in accordance with the present invention as PDE2 inhibitors may be readily determined using a fluorescence polarization (FP) methodology (Huang, W., et al., J. Biomol Screen, 2002, 7: 215).
In a typical experiment the PDE2 inhibitory activity of the compounds of the present invention was determined in accordance with the following experimental method. Rhesus PDE2A3 was amplified from rhesus macaque brain cDNA (Biochain Institute, Hayward, Calif.) using primers based on human PDE2A sequence (accession NM_002599.3) where the forward primer containing a Kozak consensus was 5′-[…]-3′ and the reverse primer was 5′-[…]-3′. Amplification with Easy-A High-Fidelity PCR cloning enzyme (Stratagene, La Jolla, Calif.) was 95° C. for 2 minutes followed by thirty three cycles of 95° C. for 40 seconds, 52° C. for 30 seconds, and 72° C. for 2 minutes 48 seconds. Final extension was 72° C. for 7 minutes. The PCR product was TA cloned into pcDNA3.3-TOPO (Invitrogen, Carlsbad, Calif.) according to standard protocol. A consensus sequence was developed from multiple clones and then deposited into GenBank (EU812167). AD293 cells (Stratagene, La Jolla, Calif.) with 70-80% confluency were transiently transfected with rhesus PDE2A3/pcDNA3.3-TOPO using Lipofectamine 2000 according to manufacturer specifications (Invitrogen, Carlsbad, Calif.). Cells were harvested 48 hours post-transfection and lysed by sonication (setting 3, 10×5 sec pulses) in a buffer containing 20 mM HEPES pH 7.4, 1 mM EDTA and Complete Protease Inhibitor Cocktail Tablets (Roche, Indianapolis, Ind.). Lysate was collected by centrifugation at 75,000×g for 20 minutes at 4° C. and supernatant utilized for evaluation of PDE2 activity. The fluorescence polarization assay for cyclic nucleotide phosphodiesterases was performed using an IMAP® FP kit supplied by Molecular Devices, Sunnyvale, Calif. (product # R8139). […] Assays were performed at room temperature in 384-well microtiter plates with an incubation volume of 20.2 μL. Solutions of test compounds were prepared in DMSO and serially diluted with DMSO to yield 8 μL of each of 10 solutions differing by 3-fold in concentration, at 32 serial dilutions per plate. […] 0% of inhibition is determined by using DMSO (1% final concentrations).
A Labcyte Echo 555 (Labcyte, Sunnyvale, Calif.) is used to dispense 200 nL from each well of the titration plate to the 384 well assay plate. Ten microliters of a solution of enzyme (1/2000 final dilution from aliquots; sufficient to produce 20% substrate conversion) was added to the assay plate. Next 10 uL of a separate solution of the substrate FAM-labeled cAMP (50 nM final concentration product # R7506 from Molecular Devices) and the activator cGMP (1 uM final concentration), prepared in the assay buffer (10 mM Tris HCl, pH 7.2, 10 mM MgCl2, 0.05% NaN3 0.01% Tween-20, and 1 mM DTT) was added to the assay plate and shaken to mix. The reaction is allowed to proceed at room temperature for 60 minutes. A binding solution is then made from the kit components, comprised of 80% Solution A, 20% Solution B and binding reagent at a volume of 1/600 the total binding solution. The enzymatic reaction is stopped by addition of 60 μL of the binding solution to each well of the assay plates and the plates are sealed and shaken for 30 seconds. The plate was incubated at room temperature for at least one hour prior to determining the fluorescence polarization (FP). The parallel and perpendicular fluorescence of each well of the plate was measured using a Tecan Genios Pro plate reader (Tecan, Switzerland) or Perkin Elmer EnVision™ plate reader (Waltham, Mass.). Fluorescence polarization (mP) was calculated from the parallel (S) and perpendicular (P) fluorescence of each sample well and the analogous values for the median control well, containing only substrate (So and Po), using the following equation: Polarization (mP)=1000*(S/So−P/Po)/(S/So+P/Po).
For orientation: Fluorescence polarisation rises when a labelled molecule tumbles more slowly, as on binding a larger partner.

The mark [1] stands for this setting: Rhesus PDE2, Lab A, read-out: Rhesus PDE2 Ki (nM) - Lab A.
The mark [2] stands for this setting: Rhesus PDE2, Lab B, read-out: Rhesus PDE2 Ki (nM) - Lab B.

Sequence of Rhesus PDE2A3 (B3VTJ2 1-941): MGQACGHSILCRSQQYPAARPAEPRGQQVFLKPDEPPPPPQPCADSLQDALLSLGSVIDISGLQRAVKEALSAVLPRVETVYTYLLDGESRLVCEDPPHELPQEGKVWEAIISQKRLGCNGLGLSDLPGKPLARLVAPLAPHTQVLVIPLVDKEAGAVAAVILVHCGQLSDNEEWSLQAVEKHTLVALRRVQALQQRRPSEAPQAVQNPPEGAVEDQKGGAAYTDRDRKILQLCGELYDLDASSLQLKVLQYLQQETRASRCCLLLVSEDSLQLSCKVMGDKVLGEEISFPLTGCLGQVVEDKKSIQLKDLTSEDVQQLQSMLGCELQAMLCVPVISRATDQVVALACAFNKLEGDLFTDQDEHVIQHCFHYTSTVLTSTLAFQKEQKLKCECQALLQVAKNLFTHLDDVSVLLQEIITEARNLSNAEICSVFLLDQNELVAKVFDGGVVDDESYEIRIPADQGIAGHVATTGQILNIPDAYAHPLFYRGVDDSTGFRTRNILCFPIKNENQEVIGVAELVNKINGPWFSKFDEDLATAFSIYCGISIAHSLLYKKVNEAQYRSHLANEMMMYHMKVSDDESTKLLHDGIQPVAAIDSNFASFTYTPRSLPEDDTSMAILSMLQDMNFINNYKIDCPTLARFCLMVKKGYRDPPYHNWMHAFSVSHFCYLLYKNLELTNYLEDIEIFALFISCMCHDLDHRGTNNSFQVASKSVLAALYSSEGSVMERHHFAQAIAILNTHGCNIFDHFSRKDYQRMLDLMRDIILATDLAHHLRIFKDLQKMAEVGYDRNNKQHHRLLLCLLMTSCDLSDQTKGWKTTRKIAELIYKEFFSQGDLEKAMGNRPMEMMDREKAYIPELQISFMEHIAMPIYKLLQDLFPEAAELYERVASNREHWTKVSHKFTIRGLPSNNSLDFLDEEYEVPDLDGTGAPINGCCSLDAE

A word on the Ki: it is a dissociation constant, usually derived from enzyme kinetics or from competition with a known ligand. As for `CC[C@@H](NC(=O)c1cc(=O)[nH]c(-c2ncccn2)n1)c1ccc(SC(F)(F)F)cc1` [Example 100, 6-oxo-N-[(1R)-1-{4-[(trifluoromethyl)sulfanyl]phenyl]propyl]-1,6-dihydro-2,2′-bipyrimidine-4-carboxamide], the Ki under setting [1] is 2.6 nM.

For the molecule `O=C(N[C@@H]1CCCc2cc(C(F)(F)F)ccc21)c1cc(=O)[nH]c(-c2ncccn2)n1` [Example 433, 6-oxo-N-[(1R)-6-(trifluoromethyl)-1,2,3,4-tetrahydronaphthalen-1-yl]-1,6-dihydro-2,2′-bipyrimidine-4-carboxamide], under setting [2], the Ki is approximately 1430 nM.

Regarding `Cc1nc(C(=O)NCc2ccc(C(F)(F)F)cc2C)cc(=O)[nH]1` [Example 23, 2-methyl-N-[2-methyl-4-(trifluoromethyl)benzyl]-6-oxo-1,6-dihydropyrimidine-4-carboxamide], the Ki under setting [1] was 3920 nM.

On to `Cc1nc(C(=O)N[C@H](C)c2ccc(-c3ccc(C(F)(F)F)cc3)cc2)cc(=O)[nH]1` [Example 318, 2-methyl-6-oxo-N-{(1R)-1-[4′-(trifluoromethyl)biphenyl-4-yl]ethyl}-1,6-dihydropyrimidine-4-carboxamide], for which the Ki came out at 73 nM under setting [1] and 189 nM under setting [2].

For the molecule `CC(NC(=O)c1cc(=O)[nH]c(-c2ccccc2)n1)c1cccc(-c2ccc(F)cc2)c1` (stereo not shown) [Example 396, N-[1-(4′-fluorobiphenyl-3-yl)ethyl]-6-oxo-2-phenyl-1,6-dihydropyrimidine-4-carboxamide], the Ki under setting [2] is approximately 20300 nM.

For the molecule `Cc1nc(C(=O)N[C@H](C)c2ccc(C(F)(F)F)c3ccccc23)cc(=O)[nH]1` [Example 28, 2-methyl-6-oxo-N-{(1R)-1-[4-(trifluoromethyl)naphthalen-1-yl]ethyl}-1,6-dihydropyrimidine-4-carboxamide], the Ki under setting [1] is 3490 nM.

As for `Cc1nc(C(=O)NC(c2ccc(C3(C)CC3)c(F)c2)C(C)(C)C)cc(=O)[nH]1` (single isomer, unassigned) [Example 710, (S)- or (R)-N-(1-(3-fluoro-4-(1-methylcyclopropyl)phenyl)-2,2-dimethylpropyl)-2-methyl-6-oxo-1,6-dihydropyrimidine-4-carboxamide], the Ki under setting [2] is more than 2970 nM.

Consider `O=C(NCc1c(Cl)cc(C(F)(F)F)cc1Cl)c1cc(=O)[nH]c(C2CC2)n1` [Example 239, 2-cyclopropyl-N-[2,6-dichloro-4-(trifluoromethyl)benzyl]-6-oxo-1,6-dihydropyrimidine-4-carboxamide], for which the Ki under setting [1] came out at 3070 nM.

`Cc1nc(C(=O)NC(C)c2ccc(C(C)C)cc2)cc(=O)[nH]1` (single isomer, unassigned) [Example 306, (S)- or (R)-2-methyl-N-{1-[4-(1-methylethyl)phenyl]ethyl}-6-oxo-1,6-dihydropyrimidine-4-carboxamide]: the Ki under setting [1] was determined as 2380 nM.

Turning to `CC(C)(C)c1ccc(CCNC(=O)c2cc(=O)[nH]c(-c3ccccc3)n2)cc1` [Example 375, N-[2-(4-tert-butylphenyl)ethyl]-6-oxo-2-phenyl-1,6-dihydropyrimidine-4-carboxamide], the inhibition at 1 µM (Rhesus PDE2, Lab A, at 1 uM, read-out: Rhesus PDE2 % inh. at 1 uM - Lab A) amounted to 46%. For the same molecule, the Ki under setting [1] amounted to 1000 nM and the Ki under setting [2] came out at 2040 nM.

Turning to `O=C(NCc1ccc(C2CC2)cc1)c1cc(=O)[nH]c(C2CC2)n1` [Example 221, 2-cyclopropyl-N-(4-cyclopropylbenzyl)-6-oxo-1,6-dihydropyrimidine-4-carboxamide], the Ki under setting [1] amounted to 681 nM.

As for `CC(C)c1ccc(CNC(=O)c2cc(=O)[nH]c(-c3ccccc3)n2)cc1` [Example 414, N-[4-(1-methylethyl)benzyl]-6-oxo-2-phenyl-1,6-dihydropyrimidine-4-carboxamide], the Ki under setting [2] stood at 136 nM.

Consider `COc1cc(C(C)NC(=O)c2cc(=O)[nH]c(C)n2)ccc1C(F)(F)F` (stereo not shown) [Example 27, N-{1-[3-methoxy-4-(trifluoromethyl)phenyl]ethyl}-2-methyl-6-oxo-1,6-dihydropyrimidine-4-carboxamide], for which the Ki under setting [1] was 1160 nM.
